According to patent publication US12383598B2, “Method for treating gingivitis and gingival atrophy and repairing oral mucosa” (ADVANCED HEALTHTECH BIOPEPTIDE LABORATORIES CO., LTD, priority 2021, dated 2025):
Ends that are not written are not given here. Peptide text beside a SMILES is read from it.

Tests used:
Format in all cases: cell-based
Type I collagen = test: Gene expression of Type I collagen in human gingival fibroblasts (RT-PCR); settings: concentration of 0 to 40 μl, FIG. 8B
Experimental: Production of Type I collagen in human gingival fibroblasts was observed. There is a dose-dependent relationship between expression of Type I collagen and GEKG and KTTKS in a concentration of 0 to 40 μl.

[1] = tested on: primary oral epithelial cells; test: Death of primary oral epithelial cells induced by free radical H2O2; settings: different concentrations, in vitro; FIG. 7
human HGF = test: Synthesis of extracellular matrix (ECM) from human HGF; settings: 50 μM KTTKS or GEKG; TGF-β1 0, 0.5 and 5 ng/ml; FIG. 10
Experimental: It is determined whether or not there exists synergism between GEKG or KTTKS and TGF-β1 in the synthesis of ECM when human HGF was treated with TGF-β1 (0.5 or 5 ng/ml) alone or in combination with KTTKS or GEKG (50 µM).
Human HGF were pre-cultured in the Dulbecco's Modified Eagle Medium (DMEM) containing 0.2% bovine serum for 24 hours, and then treated with 3 different concentrations (0, 0.5 and 5 ng/ml) of TGF-β1 for 24 hours, followed by further culturing for 24 hours in the absence of KTTKS and GEKG (solid line) or in the presence of 50 μM KTTKS or GEKG (dotted line).

[2] = Cytotoxicity to L929 cells (XTT); settings: mouse, L929 cells
Experimental: (§1) In vitro L929 cell proliferation/cytotoxicity assay was measured in a microtiter plate. L929 cells were cultured in the Eagle's minimum essential medium (EMEM) containing 10% bovine serum, 1% P/S and 1% non-essential amino acids. Converged L929 cells were washed by 2 ml of a phosphate buffer solution (PBS) and then treated with trypsin, followed by resuspension in the EMEM. 200 μl of the cell suspension were taken by suction for cell density counting, and the remaining cell suspension were centrifuged at 1500 rpm for 5 minutes. The supernatant was removed, and the EMEM was added for diluting the cells to form a final concentration of 1.5×10^5 cells/ml. 100 μl of the resultant cell suspension were added to each well of a 96-well flat-bottom microtiter plate, and then incubated at 37° C. and 5% CO2 for 24 hours.
(§2) GEKG and KTTKS were re-solved with 1× PBS to form solutions having a concentration equivalent to 1 mg GEKG/ml and 1 mg KTTKS/ml, respectively, followed by further […], respectively. 50 μl of each of the 4 diluted solutions were added to the above 96-well flat-bottom microtiter plate containing L929 cells incubated for 24 hours, and ActD with a final concentration of 2 μg/ml was added to each well. The resultant 96-well flat-bottom microtiter plate was further incubated at 37° C. and 5% CO2 for 24 hours, followed by addition of 50 μl of 2,3-bis(2-methoxy-4-nitro-5-sulfophenyl)-5-[(phenylamino)carbonyl]-2H-tetrazolium hydroxide (XTT) to each well and further incubation for 1 hour. O.D. values at 490/630 nm were measured by a microplate reader. Cytotoxicity was calculated by the following formula: […]

L929 cells = test: Cytotoxicity to L929 cells (XTT); settings: for O.D. (cytotoxicity): O.D. at 490/630 nm; for Cytotoxicity to L929 cells (in words): series of dilutions
Experimental: as §1, §2

TGF-β1 = test: Gene expression of TGF-β1 in human gingival fibroblasts (RT-PCR); settings: human HGF, FIG. 9A, 9B
[3] = tested on: human gingival fibroblasts (HGF); test: Proliferation of human gingival fibroblasts (HGF); settings: different concentrations, in vitro; FIG. 8A
macrophages [4] = test: H2O2 production from macrophages induced by LPS; settings: in vitro; FIG. 5
Experimental: An ability of GEKG and KTTKS against inflammatory oxidation pressure in vitro was evaluated by using the well-known inflammation model of H2O2 production from macrophages induced by lipopolysaccharide (LPS).

TNFα = TNFα (Homo sapiens, UniProt P01375); test: TNFα inhibition in L929 cells; settings: for O.D. (TNFα inhibition): O.D. at 490/630 nm
Sequence of TNFα (P01375 77-233 limits assumed, species assumed): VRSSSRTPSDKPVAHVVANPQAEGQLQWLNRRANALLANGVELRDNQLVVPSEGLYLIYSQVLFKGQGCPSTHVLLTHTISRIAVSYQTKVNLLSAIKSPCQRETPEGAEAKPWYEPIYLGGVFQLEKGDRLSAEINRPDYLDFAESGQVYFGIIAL
Experimental: as §1
GEKG and KTTKS were re-solved with 1× PBS to form solutions having a concentration equivalent to 1 mg GEKG/ml and 1 mg KTTKS/ml, respectively, followed by further dilution with 1× PBS to form solutions having a concentration of 500, 125, 31.25 […], respectively, and the resultant diluted solutions were mixed with a TNFα solution with an equal volume, and incubated for 1 hour. 50 μl of each of the 4 mixtures were added to the above 96-well flat-bottom microtiter plate containing L929 cells incubated for 24 hours, and actinomycin D (ActD) with a final concentration of 2 μg/ml and TNFα with a final concentration of 0.1 ng/ml were added to each well. Test wells containing 2 μg/ml ActD only and 0.1 ng/ml TNFα only were used as positive controls and blank controls, respectively. The resultant 96-well flat-bottom microtiter plate was further incubated at 37° C. and 5% CO2 for 24 hours. O.D. values at 490/630 nm were measured by a microplate reader. TNFα inhibition was calculated by the following formula: […]

[5] = tested on: primary oral epithelial cells; test: Proliferation of primary oral epithelial cells; settings: different concentrations, in vitro; FIG. 6
macrophages [6] = test: NO production from macrophages induced by LPS; settings: in vitro; FIGS. 3 and 4
Experimental: In vitro anti-inflammation of GEKG and KTTKS was evaluated by using the well-known inflammation model of NO production from macrophages induced by lipopolysaccharide (LPS).

NCCCC[C@H](NC(=O)[C@H](CCC(=O)O)NC(=O)CN)C(=O)NCC(=O)O [GEKG] (H-GEKG-OH)
Gene expression of Type I collagen (Type I collagen): stimulate gene expression of Type I collagen in transcription | Reduction of death of primary oral epithelial cells induced by free radical H2O2 [1]: reduce death of primary oral epithelial cells induced by free radical H2O2 in vitro in a dose-dependent manner | Synthesis of ECM (collagen and fibrin) from human HGF (human HGF): exhibit a more significant ability in inducing human HGF for synthesizing ECM than TGF-β1 | cytotoxicity at 24 h ([2]; GEKG dilution 1/16): -12.3% | cytotoxicity at 24 h ([2]; GEKG dilution 1/64): -2.32% | cytotoxicity at 24 h ([2]; GEKG dilution 1/256): -4.61% | cytotoxicity at 24 h ([2]; GEKG dilution 1/512): -1.71% | cytotoxicity at 24 h ([2]; GEKG dilution 1/1024): 0.11% | cytotoxicity at 24 h ([2]; GEKG dilution 1/2048): 1.9% | cytotoxicity at 24 h ([2]; GEKG dilution 1/4096): -4.72% | cytotoxicity at 24 h ([2]; GEKG dilution ¼): -58.7% | O.D. (cytotoxicity) (L929 cells; GEKG dilution 1/16): 2.01 | O.D. (cytotoxicity) (L929 cells; GEKG dilution 1/64): 1.83 | O.D. (cytotoxicity) (L929 cells; GEKG dilution 1/256): 1.87 | O.D. (cytotoxicity) (L929 cells; GEKG dilution 1/512): 1.82 | O.D. (cytotoxicity) (L929 cells; GEKG dilution 1/1024): 1.79 | O.D. (cytotoxicity) (L929 cells; GEKG dilution 1/2048): 1.75 | O.D. (cytotoxicity) (L929 cells; GEKG dilution 1/4096): 1.87 | O.D. (cytotoxicity) (L929 cells; GEKG dilution ¼): 2.84 | Cytotoxicity to L929 cells (in words) (L929 cells): does not induce cytotoxicity | Gene expression of TGF-β1 (TGF-β1): stimulate gene expression of TGF-β1 in transcription | Effect on proliferation of HGF [3]: neither GEKG nor KTTKS in different concentrations exhibits a significant effect in promoting proliferation of HGF | Inhibition of H2O2 production from macrophages induced by LPS (macrophages [4]): inhibit H2O2 production from macrophages induced by LPS in a dose-dependent manner | O.D. (TNFα inhibition) (TNFα; GEKG dilution 1/16): 1.60 | O.D. (TNFα inhibition) (TNFα; GEKG dilution 1/64): 0.80 | O.D. (TNFα inhibition) (TNFα; GEKG dilution 1/256): 0.61 | O.D. (TNFα inhibition) (TNFα; GEKG dilution 1/512): 0.56 | O.D. (TNFα inhibition) (TNFα; GEKG dilution 1/1024): 0.51 | O.D. (TNFα inhibition) (TNFα; GEKG dilution 1/2048): 0.48 | O.D. (TNFα inhibition) (TNFα; GEKG dilution 1/4096): 0.51 | O.D. (TNFα inhibition) (TNFα; GEKG dilution ¼): 2.87 | Promotion of proliferation of primary oral epithelial cells [5]: promote proliferation of primary oral epithelial cells in vitro in a dose-dependent manner | Inhibition of NO production from macrophages induced by LPS (macrophages [6]): inhibit NO production from macrophages induced by LPS in a dose-dependent manner

TGF-β1: tumor growth factor-β1 used at 0.5 or 5 ng/ml to treat human HGF [reference compound]
Synthesis of ECM (collagen and fibrin) from human HGF (human HGF): up-regulate biosynthesis of ECM

KTTKS [KTTKS]
Gene expression of Type I collagen (Type I collagen): stimulate gene expression of Type I collagen in transcription | Reduction of death of primary oral epithelial cells induced by free radical H2O2 [1]: reduce death of primary oral epithelial cells induced by free radical H2O2 in vitro in a dose-dependent manner | Synthesis of ECM (collagen and fibrin) from human HGF (human HGF): exhibit a more significant ability in inducing human HGF for synthesizing ECM than TGF-β1 | cytotoxicity at 24 h, 4.156 μg/ml ([2]; KTTKS 4.156 μg/ml): -8.3% | cytotoxicity at 24 h, 16.625 μg/ml ([2]; KTTKS 16.625 μg/ml): -3.9% | cytotoxicity at 24 h, 66.5 μg/ml ([2]; KTTKS 66.5 μg/ml): -20.8% | cytotoxicity at 24 h, 266 μg/ml ([2]; KTTKS 266 μg/ml): -77.1% | O.D. (cytotoxicity) (L929 cells; KTTKS 4.156 μg/ml): 1.600 | O.D. (cytotoxicity) (L929 cells; KTTKS 16.625 μg/ml): 1.535 | O.D. (cytotoxicity) (L929 cells; KTTKS 66.5 μg/ml): 1.784 | O.D. (cytotoxicity) (L929 cells; KTTKS 266 μg/ml): 2.616 | Cytotoxicity to L929 cells (in words) (L929 cells): does not induce cytotoxicity | Gene expression of TGF-β1 (TGF-β1): stimulate gene expression of TGF-β1 in transcription | Effect on proliferation of HGF [3]: neither GEKG nor KTTKS in different concentrations exhibits a significant effect in promoting proliferation of HGF | Inhibition of H2O2 production from macrophages induced by LPS (macrophages [4]): inhibit H2O2 production from macrophages induced by LPS in a dose-dependent manner | O.D. (TNFα inhibition) (TNFα; KTTKS 4.156 μg/ml): 0.479 | O.D. (TNFα inhibition) (TNFα; KTTKS 16.625 μg/ml): 0.597 | O.D. (TNFα inhibition) (TNFα; KTTKS 66.5 μg/ml): 1.042 | O.D. (TNFα inhibition) (TNFα; KTTKS 266 μg/ml): 2.363 | inhibition at 4.156 µg/mL (TNFα; L929, KTTKS 4.156 μg/ml): 10.5% | inhibition at 16.625 µg/mL (TNFα; L929, KTTKS 16.625 μg/ml): 21.1% | inhibition at 66.5 µg/mL (TNFα; L929, KTTKS 66.5 μg/ml): 60.9% | inhibition at 266 µg/mL (TNFα; L929, KTTKS 266 μg/ml): 179% | Promotion of proliferation of primary oral epithelial cells [5]: promote proliferation of primary oral epithelial cells in vitro in a dose-dependent manner | Inhibition of NO production from macrophages induced by LPS (macrophages [6]): inhibit NO production from macrophages induced by LPS in a dose-dependent manner
